Marks after values point to notes of the source that are not given here.
Key:
MA-treated mice [1] = assay: Striatal dopamine and metabolites in MA-treated mice; format: in vivo; conditions: for effect on MA-induced reductions in striatal DA, DOPAC and HVA: 24 mg/kg pretreatment; for Concentration DA in the striatum: 3 days after final MA
Excerpt: Mice were sacrificed at 3 days after final MA injection.

MA-treated mice [2] = assay: MA-induced hyperlocomotion; format: in vivo; conditions: morphinan 20 mg/kg i.p. 30 min before MA 1 mg/kg i.p./day x 7
Experimental: FIGS. 39A-39D show effect of morphinans on the MA-induced hyperactivity in the mice. Each morphinan (20 mg/kg, i.p.) was administered 30 minutes prior to MA (1 mg/kg, i.p.). All treatments were performed for 7 days.

cocaine-treated mice [3] = assay: Cocaine-induced hyperlocomotion; format: in vivo; conditions: for effect on locomotor activity induced by low dose of cocaine: cocaine 5 mg/kg i.p. x 7 days, morphinan 15 or 30 mg/kg (DF 20 mg/kg) i.p.; for effect on hyperactivity induced by high dose of cocaine: cocaine 20 mg/kg i.p. x 7 days, morphinan 15 or 30 mg/kg i.p. 30 min before
Experimental: FIGS. 34A-34B show effect of morphinans on the cocaine-induced hyperactivity in the mice. Morphinans (15 and 30 mg/kg, i.p.) were administered 30 minutes prior to cocaine (5 and 20 mg/kg, i.p.). Central activity means relatively non-specific locomotor activity in the center of the box. Marginal activity means circling behaviors. All treatments were performed for 7 days.
FIGS. 35A-35D show effect of dimemorfan (DF) on cocaine-induced hyperactivity in the mice. DF (20 mg/kg, i.p.) was administered 30 minutes prior to cocaine (5 and 20 mg/kg, i.p.). All treatments were performed for 7 days.

LPS-treated mice [4] = assay: Striatal dopamine and metabolites in LPS-treated mice; format: in vivo; conditions: for effect on LPS-induced reductions in striatal DA, DOPAC and HVA: 24 mg/kg pretreatment; for Concentration DA in the striatum: 3 weeks after LPS
Excerpt: (§1) Control animals received striatal injection with PBS.
Mice were sacrificed at 3 weeks after LPS treatment.

C57 BL/6 mice [5] = assay: Conditioned place preference (psychological dependence) following repeated administration of morphinans or PCP; format: in vivo; conditions: 20 or 40 mg/kg i.p. (PCP 2.5 or 5 mg/kg); vs saline
Experimental: On day 14, the guillotine doors were raised. […] Data were analyzed between 0900 and 1700 hr.

MA-treated mice [6] = assay: MA-induced FRA-IR in the striatum; conditions: morphinan 20 mg/kg i.p.; MA 1 mg/kg i.p./day x 7
Experimental: Therefore, brains were removed and used for immunocytochemical analysis at 18 h after the final cocaine/MA treatment. The coronal sections containing striatum were processed for FRA immunocytochemistry. […] The FRA antibody was used at 1:2,000 as the optimal dilution. The FRA-IR in the striatum was calculated using image analysis systems with a polaroid digital microscopic camera (Optimas version 6.2).

[7] = test system: kainate or maximal electric shock; conditions: kainate (24) or maximal electric shock (27); cited from earlier work
LPS-treated mice [8] = assay: Hypokinesia induced by intrastriatal LPS; conditions: 12 or 24 mg/kg, twice before bilateral intrastriatal LPS
Experimental: Male mice were anesthetized with chloral hydrate (200 mg/kg, i.p.) and positioned in a small-animal stereotaxic apparatus. […] LPS (2 μg in a volume of 2 μl of PBS) was injected into both sides of the striatum over a period of 2 min, and the injection needle was kept in place for 2 min after the injection. Control animals received striatal injection with PBS.
Ten min after the last treatment with each drug, locomotor activity was measured for 30 min. After measuring the locomotor activity (i.e. 40 min after the last drug injection), the ‘absolute turn angular’ was analyzed in a 3-min monitoring period using an automated video-tracking system (Noldus Information Technology, Wagenin, The Netherlands) to examine locomotor patterns. […] Eight test boxes (40×40×30 cm high) were operated simultaneously by an IBM computer. Animals were studied individually during locomotion in each test box, where they were adapted for 10 min before starting the experiment. […] The distance traveled in cm by the animals in horizontal locomotor activity was analyzed (13, 25, 27). Data were collected and analyzed between 0900 and 1700 hr.

C57 BL/6 mice [9] = assay: Locomotor activity and locomotor pattern following repeated administration of morphinans or PCP; format: in vivo; conditions: for locomotor pattern (tracings): 40 mg/kg i.p. (PCP 5 mg/kg), FIG. 3; for marginal activity (circling behaviour; absolute turn angular): 20 or 40 mg/kg i.p./day x 7 (PCP 2.5 or 5 mg/kg), 3-min period; for marginal activity (circling behaviour; absolute turn angular) / locomotor activity (total distance moved): vs saline; for locomotor activity (total distance moved): 20 or 40 mg/kg i.p./day x 7 days, 30 min after final treatment
MA-treated mice [10] = assay: MA-induced behavioural sensitization; conditions: morphinan 20 mg/kg i.p., last 3 days of wash-out (Ex. 3.12)
Experimental: Morphinans (20 mg/kg, i.p.) were administered last 3 days of wash-out period.

MPTP-treated mice [11] = assay: Striatal dopamine and metabolites (HPLC-EC) in MPTP-treated mice; conditions: for effect on MPTP-induced reductions in striatal DA, DOPAC and HVA: 24 mg/kg pretreatment; for Concentration DA in the striatum: mean ± S.E.M., 8 animals
Experimental: (§2) Each morphinan was administered 30 min prior to every injection of MPTP for last three days (from day 4th to day 7th). Animals were sacrificed 24 h after the last MPTP treatment.
Brains were rapidly removed and cut into 1 mm coronal sections on ice. The striatum was punched using a fine pasteur pipette (3, 21, 22), and stored at −70° C. DA and its metabolites, 3,4-dihydroxyphenylacetic acid (DOPAC) and homovanilic acid (HVA) were measured by HPLC-eletrochemical detection (3, 21, 22). Briefly, the striatum was homogenized in 0.2 M perchloric acid containing 3,4-dihydroxybenzylamine as an internal standard (10 mg wet weight of tissue per ml). The homogenate was centrifuged and a 20-μl aliquot of the supernatant was injected into the HPLC equipped with an ODS-C18 column. The mobile phase was comprised of 26 ml of acetonitrile, 21 ml of tetrahydrofuran and 960 ml of 0.15 M monochloroacetic acid (pH 3.0) containing 50 mg/l of EDTA and 200 mg/l of sodium octyl sulfate. The amount of DA, DOPAC and HVA were determined by comparison of peak height ratio of tissue sample with standards, and were expressed in nanograms per 100 mg of wet weight of tissue.
Each morphinan was administered 30 min before every injection of MPTP for last three days. Animals were sacrificed at 24 h after the last MPTP injection.

σ1 receptors = σ1 receptors (Homo sapiens, UniProt Q99720); conditions: cited from earlier work
Sequence of σ1 receptors (Q99720 whole entry): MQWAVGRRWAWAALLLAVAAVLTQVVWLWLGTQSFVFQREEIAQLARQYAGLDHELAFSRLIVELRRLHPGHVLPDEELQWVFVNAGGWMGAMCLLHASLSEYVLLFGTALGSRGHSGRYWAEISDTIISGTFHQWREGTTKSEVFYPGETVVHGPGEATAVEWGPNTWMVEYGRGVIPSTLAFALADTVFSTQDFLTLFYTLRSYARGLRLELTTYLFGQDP

MPTP-treated mice [12] = assay: Hypokinesia (reduction in locomotor activity) induced by MPTP; format: in vivo; conditions: 12 or 24 mg/kg i.p. 30 min before MPTP (20 mg/kg/day x 7), last three days
cocaine-treated mice [13] = assay: Cocaine-induced Fos-related antigen-immunoreactivity (FRA-IR) in the striatum; conditions: cocaine 5 mg/kg; morphinan 20 mg/kg i.p.
MA-treated mice [14] = assay: Methamphetamine (MA)-induced hyperthermia; format: in vivo; conditions: 24 mg/kg; MA 7.5 mg/kg i.p. x 4 at 2-h intervals
Experimental: Rectal temperature was recorded at 40 min after each MA treatment. […] Mice were sacrificed at 3 days after final MA injection.
FIGS. 10A-10B show effect of morphinans on the methamphetamine (MA)-induced hyperthermia. Mice received i.p. injections of MA (four injections of 7.5 mg/kg each) at 2-h intervals under the ambient temperature of 22.0±0.5° C. Temperatures were recorded at 40 min after each MA treatment (Arrow=MA injection).

MA-treated mice [15] = assay: Nigral TH-IR in MA-treated mice; conditions: 24 mg/kg i.p.
MA-treated mice [16] = assay: Hypokinesia induced by MA; format: in vivo; conditions: 12 and 24 mg/kg; 3 days after final MA
[17] = test system: NMDA receptor associated PCP sites; conditions: cited from earlier work
MPTP-treated mice [18] = assay: Nigral tyrosine hydroxylase-like immunoreactivity in MPTP-treated mice; conditions: 24 mg/kg i.p.
Experimental: as §2

LPS-treated mice [19] = assay: Nigral TH-IR in LPS-treated mice; format: in vivo; conditions: 24 mg/kg i.p.
Excerpt: FIGS. 8A-8B. […] Magnification=40×.
as §1

[20] = morphinan 12 (mg/kg) + MA, mean ± S.E.M., 8 animals
[21] = morphinan 12 (mg/kg) + LPS, mean ± S.E.M., 8 animals

| SMILES | effect on MA-induced reductions in striatal DA, DOPAC and HVA (MA-treated mice [1]) | Concentration DOPAC in the striatum (MA-treated mice [1]; morphinan 12 (mg/kg) + MA) [ng/100 mg wet tissue] | Concentration HVA in the striatum (MA-treated mice [1]; morphinan 12 (mg/kg) + MA) [ng/100 mg wet tissue] | Concentration DA in the striatum (MA-treated mice [1]; [20]) [ng/100 mg wet tissue] | Concentration DOPAC in the striatum (MA-treated mice [1]; morphinan 24 (mg/kg) + MA) | Concentration HVA in the striatum (MA-treated mice [1]; morphinan 24 (mg/kg) + MA) | Concentration DA in the striatum (MA-treated mice [1]; morphinan 24 (mg/kg) + MA) | effect on MA-induced hyperlocomotion (MA-treated mice [2]) | effect on locomotor activity induced by low dose of cocaine (cocaine-treated mice [3]) | effect on hyperactivity induced by high dose of cocaine (cocaine-treated mice [3]) | effect on LPS-induced reductions in striatal DA, DOPAC and HVA (LPS-treated mice [4]) | Concentration DOPAC in the striatum (LPS-treated mice [4]; morphinan 12 (mg/kg) + LPS) [ng/100 mg wet tissue] | Concentration HVA in the striatum (LPS-treated mice [4]; morphinan 12 (mg/kg) + LPS) [ng/100 mg wet tissue] | Concentration DA in the striatum (LPS-treated mice [4]; [21]) [ng/100 mg wet tissue] | Concentration DOPAC in the striatum (LPS-treated mice [4]; morphinan 24 (mg/kg) + LPS) | Concentration HVA in the striatum (LPS-treated mice [4]; morphinan 24 (mg/kg) + LPS) | Concentration DA in the striatum (LPS-treated mice [4]; morphinan 24 (mg/kg) + LPS) | conditioned place preference (CPP) (C57 BL/6 mice [5]) | effect on MA-induced FRA-IR in the striatum (MA-treated mice [6]) | anticonvulsant effect [7] | other results |
| --- | --- | --- | --- | --- | --- | --- | --- | --- | --- | --- | --- | --- | --- | --- | --- | --- | --- | --- | --- | --- | --- |
| Cc1ccc2c(c1)[C@@]13CCCC[C@H]1[C@@H](C2)N(C)CC3 [DF, 3-methyl-17-methyl-morphinan] | significantly protected | 79 ± 11 | 79 ± 7 | 603 ± 65 | 94 ± 9^b ng/100 mg wet tissue | 92 ± 10^b ng/100 mg wet tissue | 762 ± 81^b ng/100 mg wet tissue | consistently effective in attenuating hyperlocomotion induced by MA | consistently attenuated locomotor activity induced by a low dose of cocaine | not uniform | did not alter LPS-induced reductions in DA, DOPAC and HVA levels | 54 ± 7 | 62 ± 8 | 635 ± 65 | 59 ± 8 ng/100 mg wet tissue | 63 ± 7 ng/100 mg wet tissue | 459 ± 58 ng/100 mg wet tissue | almost no CPP effects | apparently attenuated | exhibited anticonvulsant effects | effect on LPS-induced decrease in locomotor activity (LPS-treated mice [8]): neither AM nor DF were effective in attenuating locomotor hypoactivity; locomotor pattern (tracings) (C57 BL/6 mice [9]): did not produce significant marginal activity; marginal activity (circling behaviour; absolute turn angular) (C57 BL/6 mice [9]): did not significantly affect marginal activity; locomotor activity (total distance moved) (C57 BL/6 mice [9]): comparable to that with saline; effect on MA-induced behavioural sensitization (MA-treated mice [10]): significantly reduced; effect on MPTP-induced reductions in striatal DA, DOPAC and HVA (MPTP-treated mice [11]): did not alter reductions in DA, DOPAC and HVA; Concentration DOPAC in the striatum (MPTP-treated mice [11]; morphinan 12 (mg/kg) + MPTP): 44 ± 6 ng/100 mg wet tissue; Concentration HVA in the striatum (MPTP-treated mice [11]; morphinan 12 (mg/kg) + MPTP): 62 ± 7 ng/100 mg wet tissue; Concentration DA in the striatum (MPTP-treated mice [11]; morphinan 12 (mg/kg) + MPTP): 403 ± 55 ng/100 mg wet tissue; Concentration DOPAC in the striatum (MPTP-treated mice [11]; morphinan 24 (mg/kg) + MPTP): 52 ± 7 ng/100 mg wet tissue; Concentration HVA in the striatum (MPTP-treated mice [11]; morphinan 24 (mg/kg) + MPTP): 68 ± 6 ng/100 mg wet tissue; Concentration DA in the striatum (MPTP-treated mice [11]; morphinan 24 (mg/kg) + MPTP): 397 ± 55 ng/100 mg wet tissue; affinity for σ1 receptors (σ1 receptors): high affinity ligands; effect on MPTP-induced reduction in locomotor activity (MPTP-treated mice [12]): neither AM nor DF affected significantly the locomotor hypoactivity; effect on cocaine-induced FRA-IR in the striatum (cocaine-treated mice [13]): apparently attenuated; effect on MA-induced hyperthermia (rectal temperature) (MA-treated mice [14]): attenuated by all morphinans used in this study; effect on MA-induced decrease in nigral TH-positive cells (MA-treated mice [15]): significantly attenuated the decrease in TH-positive cells; effect on MA-induced reduction in locomotor activity (MA-treated mice [16]): significantly prevented MA-induced reduction in locomotor activity; affinity for NMDA receptor associated PCP sites [17]: very low affinities |
| COc1ccc2c(c1)[C@@]13CCCC[C@H]1[C@@H](C2)N(C)CC3 [DM, 3-methoxy-17-methylmorphinan, reference compound] | significantly protected | 83 ± 9 | 82 ± 9 | 625 ± 74 | 98 ± 11^b ng/100 mg wet tissue | 94 ± 8^b ng/100 mg wet tissue | 782 ± 72^c ng/100 mg wet tissue | did not affect MA (1 mg/kg, i.p./day×7)-induced hyperactivity | enhanced locomotor activity produced by a low dose of cocaine | attenuated | significantly protected | 68 ± 7 | 82 ± 9 | 612 ± 76 | 105 ± 12^b ng/100 mg wet tissue | 98 ± 8^b ng/100 mg wet tissue | 892 ± 92^d ng/100 mg wet tissue | also produced CPP | did not affect this induction of FRA-IR | exhibited anticonvulsant effects | effect on MPTP-induced decrease in nigral TH-positive cells (MPTP-treated mice [18]): significantly attenuated the decrease in TH-positive cells; effect on LPS-induced decrease in locomotor activity (LPS-treated mice [8]): significantly prevented LPS-induced decrease in locomotor activity; locomotor pattern (tracings) (C57 BL/6 mice [9]): produced marginal activity; marginal activity (circling behaviour; absolute turn angular) (C57 BL/6 mice [9]): significant increase in marginal activity; locomotor activity (total distance moved) (C57 BL/6 mice [9]): significantly increased locomotor activity; effect on MA-induced behavioural sensitization (MA-treated mice [10]): did not alter behavioural sensitization by MA; effect on MPTP-induced reductions in striatal DA, DOPAC and HVA (MPTP-treated mice [11]): significantly protected; Concentration DOPAC in the striatum (MPTP-treated mice [11]; morphinan 12 (mg/kg) + MPTP): 69 ± 9 ng/100 mg wet tissue; Concentration HVA in the striatum (MPTP-treated mice [11]; morphinan 12 (mg/kg) + MPTP): 82 ± 9 ng/100 mg wet tissue; Concentration DA in the striatum (MPTP-treated mice [11]; morphinan 12 (mg/kg) + MPTP): 520 ± 67 ng/100 mg wet tissue; Concentration DOPAC in the striatum (MPTP-treated mice [11]; morphinan 24 (mg/kg) + MPTP): 85 ± 10^b ng/100 mg wet tissue; Concentration HVA in the striatum (MPTP-treated mice [11]; morphinan 24 (mg/kg) + MPTP): 98 ± 11^b ng/100 mg wet tissue; Concentration DA in the striatum (MPTP-treated mice [11]; morphinan 24 (mg/kg) + MPTP): 708 ± 82^b ng/100 mg wet tissue; affinity for σ1 receptors (σ1 receptors): high affinity ligands; effect on MPTP-induced reduction in locomotor activity (MPTP-treated mice [12]): significantly prevented MPTP-induced reduction in locomotor activity; effect on cocaine-induced FRA-IR in the striatum (cocaine-treated mice [13]): Neither DM nor MM affects this induction of FRA-IR; effect on MA-induced hyperthermia (rectal temperature) (MA-treated mice [14]): attenuated by all morphinans used in this study; effect on MA-induced decrease in nigral TH-positive cells (MA-treated mice [15]): significantly attenuated the decrease in TH-positive cells; effect on LPS-induced reduction in nigral TH-positive cells (LPS-treated mice [19]): significantly attenuated the reduction in TH-positive cells; effect on MA-induced reduction in locomotor activity (MA-treated mice [16]): significantly prevented MA-induced reduction in locomotor activity |
